Test results: patent US20260256792A1, “TREATMENT OF CHRONIC SPONTANEOUS URTICARIA BY ADMINISTERING (R)-2-[3-[4-AMINO-3-(2-FLUORO-4-PHENOXY-PHENYL)PYRAZOLO[3,4-D]PYRIMIDIN-1-YL]PIPERIDINE-1-CARBONYL]-4-METHYL-4-[4-(OXETAN-3-YL)PIPERAZIN-1-YL]PENT-2-ENENITRILE” (priority 2023, published 2026)

Test system: moderate-to-severe chronic spontaneous urticaria (CSU)
Experiment: Phase 2 CSU study: itch severity score over 7 days (ISS7)
Format: in vivo, human
Source text: The study comprises a 12 week, randomized, double-blind, placebo-controlled, multi-center, dose-ranging efficacy and safety phase, followed by a 40 week open label extension (OLE) phase (see FIG. 1). The study consists of three phases and an optional OLE phase. […] Clinically, CSU is characterized by the spontaneous and recurrent appearance of pruritic hives. The proposed primary endpoints were the UAS7 at Week 12 in EU and EU reference countries and the ISS7 in the US. Regardless of where a participant was from, all assessments were the same. The UAS7 score is a composite score containing both the HSS7 and the ISS7. This allowed a global assessment of the two key components of urticaria: hives and itch. […] The UAS is a validated PRO measure. […] The daily UAS scores range from 0 to 6 point/day. […] Patients were to complete the UAS using the e-diary. […] The following secondary endpoints were to be analyzed using the same approach as for the primary endpoint: • Change from baseline in UAS7 at Week 4 • Change from baseline in UAS7 at Week 12 (for US and US reference countries) • Change from baseline in ISS7 at Week 12 (except US and US reference countries) • Change from baseline in HSS7 at Week 12

[1] = Omalizumab-naïve population, 400 mg BID (N = 35), double-blind period, last week block of Table 28 (week head not shown), WOCF imputation
[2] = Omalizumab-naïve population, 400 mg QPM (N = 37), double-blind period, last week block of Table 28 (week head not shown), WOCF imputation
[3] = Omalizumab-naïve population, 400 mg TID (N = 35), double-blind period, last week block of Table 28 (week head not shown), WOCF imputation
[4] = Patients with prior omalizumab use incl. incomplete responders, 400 mg TID (N = 6), double-blind period, last week block of Table 28 (week head not shown), WOCF imputation
[5] = Week 1, 400 mg BID, Omalizumab-Naïve
[6] = Week 1, 400 mg BID, Prior Omalizumab Use
[7] = Week 1, 400 mg QPM, Omalizumab-Naïve
[8] = Week 1, 400 mg QPM, Prior Omalizumab Use
[9] = Week 1, 400 mg TID, Omalizumab-Naïve
[10] = Week 1, 400 mg TID, Prior Omalizumab Use
[11] = Week 2, 400 mg BID, Omalizumab-Naïve

CC(C)(C=C(C#N)C(=O)N1CCC[C@@H](n2nc(-c3ccc(Oc4ccccc4)cc3F)c3c(N)ncnc32)C1)N1CCN(C2COC2)CC1 [rilzabrutinib, (R)-2-[3-[4-amino-3-(2-fluoro-4-phenoxy-phenyl)pyrazolo[3,4-d]pyrimidin-1-yl]piperidine-1-carbonyl]-4-methyl-4-[4-(oxetan-3-yl)piperazin-1-yl]pent-2-enenitrile]
ISS7 Post-baseline Mean (SD) (Omalizumab-Naïve, 400 mg TID, Week 5): 6.92 (5.87) | ISS7 Post-baseline Mean (SD) (Omalizumab-Naïve, 400 mg TID, Week 7): 7.14 (5.35) | ISS7 Post-baseline Mean (SD) (Omalizumab-Naïve, 400 mg TID, Week 8): 7.24 (5.51) | ISS7 Post-baseline Mean (SD) (Omalizumab-Naïve, 400 mg TID, Week 9): 6.68 (5.31) | ISS7 Post-baseline Mean (SD) (Omalizumab-Naïve, 400 mg TID, Week 10): 6.75 (5.25) | ISS7 Post-baseline Mean (SD) (Omalizumab-Naïve, 400 mg TID, Week 11): 6.99 (5.53) | ISS7 Post-baseline Mean (SD) (Omalizumab-Naïve, 400 mg TID, Week 12): 5.77 (5.26) | ISS7 Change from baseline Mean (SD) [1]: −6.60 (7.33) | ISS7 Change from baseline Median [1]: −8.00 | ISS7 Percent change from baseline Mean (SD) [1]: −46.22 (56.25) % | ISS7 Percent change from baseline Median [1]: −53.33% | ISS7 change from baseline, Max [1]: 2.0 | ISS7 change from baseline, Min [1]: −14.0 | ISS7 change from baseline, Q1 [1]: −13.00 | ISS7 change from baseline, Q3 [1]: 0.00 | ISS7 percent change from baseline, Max [1]: 22.2% | ISS7 percent change from baseline, Min [1]: −100.0% | ISS7 percent change from baseline, Q1 [1]: −100.00% | ISS7 percent change from baseline, Q3 [1]: 0.00% | ISS7 Change from baseline Mean (SD) [2]: −11.40 (8.46) | ISS7 Change from baseline Median [2]: −14.00 | ISS7 Percent change from baseline Mean (SD) [2]: −66.19 (45.96) % | ISS7 Percent change from baseline Median [2]: −83.33% | ISS7 change from baseline, Max [2]: 0.0 | ISS7 change from baseline, Min [2]: −20.0 | ISS7 change from baseline, Q1 [2]: −19.00 | ISS7 change from baseline, Q3 [2]: 0.00 | ISS7 percent change from baseline, Max [2]: 0.0% | ISS7 percent change from baseline, Min [2]: −100.0% | ISS7 percent change from baseline, Q1 [2]: −100.00% | ISS7 percent change from baseline, Q3 [2]: 0.00% | ISS7 Change from baseline Mean (SD) [3]: −6.20 (3.70) | ISS7 Change from baseline Median [3]: −7.00 | ISS7 Percent change from baseline Mean (SD) [3]: −38.05 (24.78) % | ISS7 Percent change from baseline Median [3]: −47.37% | ISS7 change from baseline, Max [3]: 0.0 | ISS7 change from baseline, Q1 [3]: −9.00 | ISS7 change from baseline, Q3 [3]: −6.00 | ISS7 percent change from baseline, Max [3]: 0.0% | ISS7 percent change from baseline, Min [3]: −64.3% | ISS7 percent change from baseline, Q1 [3]: −50.00% | ISS7 percent change from baseline, Q3 [3]: −28.57% | ISS7 Change from baseline Mean (SD) [4]: −1.50 (2.12) | ISS7 Change from baseline Median [4]: −1.50 | ISS7 Percent change from baseline Mean (SD) [4]: −18.75 (26.52) % | ISS7 Percent change from baseline Median [4]: −18.75% | ISS7 change from baseline, Max [4]: 0.0 | ISS7 change from baseline, Min [4]: −3.0 | ISS7 change from baseline, Q1 [4]: −3.00 | ISS7 change from baseline, Q3 [4]: 0.00 | ISS7 percent change from baseline, Max [4]: 0.0% | ISS7 percent change from baseline, Min [4]: −37.5% | ISS7 percent change from baseline, Q1 [4]: −37.50% | ISS7 percent change from baseline, Q3 [4]: 0.00% | ISS7 Change from baseline Mean (SD) [5]: −4.94 (4.65) | ISS7 Change from baseline Median [5]: −4.00 | ISS7 Median [5]: 12.00 | ISS7 Percent change from baseline Mean (SD) [5]: −33.91 (34.62) % | ISS7 Percent change from baseline Median [5]: −25.00% | ISS7 Change from baseline Mean (SD) [6]: −6.33 (5.82) | ISS7 Change from baseline Median [6]: −4.50 | ISS7 Median [6]: 13.00 | ISS7 Percent change from baseline Mean (SD) [6]: −35.93 (34.83) % | ISS7 Percent change from baseline Median [6]: −23.02% | ISS7 Change from baseline Mean (SD) [7]: −3.30 (4.93) | ISS7 Change from baseline Median [7]: −3.00 | ISS7 Mean (SD) [7]: 13.08 (4.52) | ISS7 Median [7]: 14.00 | ISS7 Percent change from baseline Mean (SD) [7]: −17.96 (28.66) % | ISS7 Percent change from baseline Median [7]: −19.05% | ISS7 Change from baseline Mean (SD) [8]: −8.00 (NC) | ISS7 Change from baseline Median [8]: −8.00 | ISS7 Mean (SD) [8]: 13.00 (NC) | ISS7 Median [8]: 13.00 | ISS7 Percent change from baseline Mean (SD) [8]: −38.10 (NC) % | ISS7 Percent change from baseline Median [8]: −38.10% | ISS7 Change from baseline Mean (SD) [9]: −6.17 (5.49) | ISS7 Change from baseline Median [9]: −5.00 | ISS7 Mean (SD) [9]: 9.51 (5.64) | ISS7 Median [9]: 9.00 | ISS7 Percent change from baseline Mean (SD) [9]: −38.58 (33.51) % | ISS7 Percent change from baseline Median [9]: −31.37% | ISS7 Change from baseline Mean (SD) [10]: −9.67 (5.32) | ISS7 Change from baseline Median [10]: −9.00 | ISS7 Mean (SD) [10]: 7.33 (5.43) | ISS7 Median [10]: 7.00 | ISS7 Percent change from baseline Mean (SD) [10]: −58.16 (26.72) % | ISS7 Percent change from baseline Median [10]: −66.07% | ISS7 Change from baseline Mean (SD) [11]: −5.00 (4.40) | ISS7 Change from baseline Median [11]: −5.00 | ISS7 Mean (SD) [11]: 10.32 (5.64)
